Measured values: patent US8664226B2, “Compound having 3-heteroarylpyrimidin-4-(3H)-one structure and pharmaceutical preparation containing same” (Kowa Company, Ltd., priority 2009, dated 2014)
pEC50, pIC50: −log10 of the molar value.

Columns and labels:
[1] = target: T1, angiotensin II type 1 receptor (Oryctolagus cuniculus, UniProt P34976); assay: Angiotensin II antagonistic activity in isolated rabbit blood vessels; details: angiotensin II (10 nM)-induced contraction of rabbit thoracic aorta ring
T1 construct: By using a specimen of isolated rabbit blood vessels; from tissue; host or cells: rabbit thoracic aorta ring (New Zealand White, male)
T1 sequence (P34976 1-359): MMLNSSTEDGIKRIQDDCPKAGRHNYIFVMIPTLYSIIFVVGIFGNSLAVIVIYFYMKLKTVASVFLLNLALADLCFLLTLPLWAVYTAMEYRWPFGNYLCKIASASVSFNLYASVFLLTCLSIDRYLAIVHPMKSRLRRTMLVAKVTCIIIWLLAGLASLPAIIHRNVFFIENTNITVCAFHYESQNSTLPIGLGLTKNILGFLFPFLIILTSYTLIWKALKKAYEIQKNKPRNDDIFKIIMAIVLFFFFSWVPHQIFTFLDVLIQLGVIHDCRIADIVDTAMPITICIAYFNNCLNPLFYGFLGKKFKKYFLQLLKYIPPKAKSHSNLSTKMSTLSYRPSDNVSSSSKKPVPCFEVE
Outline: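 Contraction of isolated rabbit vessel induced by angiotensin II, in a magnus bath at 37° C gassed with 95% O2/5% CO2. Responses expressed as % of the 10 nM angiotensin II contraction without compound, and IC50 calculated from the concentration-response curve.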

[2] = target: T2, human PPARγ2 (Homo sapiens, UniProt P37231); assay: PPARγ activation activity, Gal4 chimera luciferase transfection assay using COS7 cells; format: cell-based; details: for pEC50 / Emax: COS7 cells; for pEC50: Gal4-human PPARγ2 LBD chimera, luciferase reporter, 16 hours, read-out: EC50; for Emax: COS-7, 16 h, maximum activity strength relative to the maximum activity of rosiglitazone, read-out: % MAX vs Rosiglitazone; for maximum activity compared with telmisartan: maximum PPARγ activity, telmisartan 30 to 50% of rosiglitazone under the same condition
T2 construct: the amino acids 182 to 505 of human PPARγ2; expressed in transfected cells; host or cells: COS7 cells
Procedure: The agonistic activity of the compounds of the invention on PPARγ was measured based on the transfection assay using COS7 cells (DS Pharma Biomedical Co., Ltd., Osaka, Japan), which are the cell line derived from the kidney of the African green monkey. COS7 cells were cultured under 5% CO2 concentration, and DMEM medium containing 10% fetal bovine serum, glutamic acid, and antibiotics was used as a medium.
As an expression vector, a chimera in which DNA binding domain of Gal4, which is a yeast transcription factor, and ligand binding domain of human PPAR^γ2 are fused, i.e., a fused product between the amino acids 1 to 147 of Gal4 transcription factor and the amino acids 182 to 505 of human PPARγ2, was used. Furthermore, as a reporter vector, a firefly luciferase containing five copies of Gal4 recognition sequence in the promoter region was used. Plasmid transfection to the cells was performed according to a method which uses jetPEI (trade name, manufactured by Funakoshi Co., Ltd., Tokyo, Japan). Furthermore, β-galactosidase expression vector was employed as an internal standard.
After the transfection of the cells, the medium was replaced with a DMEM medium (containing 1% serum) added with the compound, and the cells were further cultured for 16 hours. After that, the luciferase activity and β-galactosidase activity in the cell lysis solution were measured.
For the present test, dimethyl sulfoxide (DMSO) was used for dissolution and dilution of the test compounds, and during the cell treatment, the DMSO concentration in DMEM medium (containing 1% serum) was adjusted to 0.1%. As a positive compound, rosiglitazone (trade name, manufactured by ALEXIS Corporation, Switzerland) was used. […] The 50% effective concentration of the test compound (EC50, 50% effect concentration) was calculated by using SAS Preclinical Package Ver5.0 (trade name, manufactured by SAS institute Japan Co., Tokyo, Japan), which is a statistical analysis program.

T2 sequence (P37231 182-505): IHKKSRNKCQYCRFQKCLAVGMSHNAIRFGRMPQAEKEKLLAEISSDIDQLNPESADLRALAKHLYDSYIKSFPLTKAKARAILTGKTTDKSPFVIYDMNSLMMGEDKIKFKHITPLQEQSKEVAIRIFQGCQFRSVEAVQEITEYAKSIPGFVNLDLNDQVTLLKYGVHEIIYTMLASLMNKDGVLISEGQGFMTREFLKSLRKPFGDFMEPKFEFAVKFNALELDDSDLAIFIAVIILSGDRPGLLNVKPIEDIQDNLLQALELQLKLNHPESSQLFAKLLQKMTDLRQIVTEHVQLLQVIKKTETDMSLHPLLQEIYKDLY
T2 sequence (P04386 1-147 partner limits assumed): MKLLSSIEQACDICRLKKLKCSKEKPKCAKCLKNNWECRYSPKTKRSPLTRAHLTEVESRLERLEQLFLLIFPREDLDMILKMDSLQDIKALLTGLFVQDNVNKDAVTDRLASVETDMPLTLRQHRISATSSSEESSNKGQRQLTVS

Structure (SMILES) | pIC50 [1] | pEC50 [2] | Emax [2] | maximum activity compared with telmisartan [2]
CCCCc1nc(C)n(-c2ncccc2Cl)c(=O)c1Cc1ccc(-c2ccccc2-c2nnn[nH]2)cc1 [Example 6, 5-{[2′-(1H-tetrazol-5-yl)biphenyl-4-yl]methyl}-6-butyl-3-(3-chloropyridin-2-yl)-2-methylpyrimidin-4(3H)-one] | 7.62 | 5.77 | 20.3% | –
CCCCOc1cnc(-n2c(C)nc(CCCC)c(Cc3ccc(-c4ccccc4-c4nnn[nH]4)cc3)c2=O)nc1 [Example 24, 5-{[2′-(1H-tetrazol-5-yl)biphenyl-4-yl]methyl}-3-(5-butoxypyrimidin-2-yl)-6-butyl-2-methylpyrimidin-4 (3H)-one] | 6.85 | 6.07 | – | –
CCCCc1nc(C)n(-c2ncc(OCCC)cn2)c(=O)c1Cc1ccc(-c2ccccc2-c2nnn[nH]2)cc1 [Example 22, 5-{[2′-(1H-tetrazol-5-yl)biphenyl-4-yl]methyl}-6-butyl-2-methyl-3-(5-propoxypyrimidin-2-yl)pyrimidin-4 (3H)-one] | 6.81 | 6.23 | 22.8% | –
CCCCc1nc(C)n(-c2ccc(OC)cn2)c(=O)c1Cc1ccc(-c2ccccc2-c2nnn[nH]2)cc1 [Example 3, 5-{[2′-(1H-tetrazol-5-yl)biphenyl-4-yl]methyl}-6-butyl-3-(5-methoxypyridin-2-yl)-2-methylpyrimidin-4(3H)-one] | 7.74 | 5.43 | – | –
CCCCc1nc(C)n(-c2ncc(Br)cn2)c(=O)c1Cc1ccc(-c2ccccc2-c2nnn[nH]2)cc1 [Example 16, 5-{[2′-(1H-tetrazol-5-yl)biphenyl-4-yl]methyl}-3-(5-bromopyrimidin-2-yl)-6-butyl-2-methylpyrimidin-4 (3H)-one] | 7.85 | 5.62 | 35.5% | –
CCCCc1nc(C)n(-c2ncc(OC(C(=O)O)c3ccccc3)cn2)c(=O)c1Cc1ccc(-c2ccccc2-c2nnn[nH]2)cc1 (stereo not shown) [Example 42, 2-{2-{5-{[2′-(1H-tetrazol-5-yl)biphenyl-4-yl]methyl}-4-butyl-2-methyl-6-oxopyrimidin-1(6H)-yl}pyrimidin-5-yloxy}-2-phenylacetic acid] | 8.57 | 5.37 | – | –

Further molecules by rising pIC50 [1], results first:

pIC50 [1] | pEC50 [2] | Emax [2] | Structure (SMILES) | maximum activity compared with telmisartan [2]
6.01 | 5.89 | 48.6% | CCCCc1nc(C)n(-c2ccc(C(F)(F)F)cn2)c(=O)c1Cc1ccc(-c2ccccc2-c2nnn[nH]2)cc1 [Example 11, 5-{[2′-(1H-tetrazol-5-yl)biphenyl-4-yl]methyl}-6-butyl-2-methyl-3-[5-(trifluoromethyl)pyridin-2-yl]pyrimidin-4(3H)-one] | the same or greater than that of telmisartan
6.02 | 5.57 | 31.6% | CCCCc1nc(C)n(-c2nc3ccccc3n2C)c(=O)c1Cc1ccc(-c2ccccc2-c2nnn[nH]2)cc1 [Example 69, 5-{[2′-(1H-tetrazol-5-yl)biphenyl-4-yl]methyl}-6-butyl-2-methyl-3-(1-methyl-1H-benzimidazol-2-yl)pyrimidin-4 (3H)-one] | –
6.36 | 5.47 | – | CCCCc1nc(C)n(-c2nccs2)c(=O)c1Cc1ccc(-c2ccccc2-c2nnn[nH]2)cc1 [Example 62, 5-{[2′-(1H-tetrazol-5-yl)biphenyl-4-yl]methyl}-6-butyl-2-methyl-3-(thiazol-2-yl)pyrimidin-4 (3H)-one] | –
6.37 | 5.82 | 54.6% | CCCCc1nc(C)n(-c2ccc(Cl)cn2)c(=O)c1Cc1ccc(-c2ccccc2-c2nnn[nH]2)cc1 [Example 7, 5-{[2′-(1H-tetrazol-5-yl)biphenyl-4-yl]methyl}-6-butyl-3-(5-chloropyridin-2-yl)-2-methylpyrimidin-4(3H)-one] | the same or greater than that of telmisartan
7.22 | 5.84 | – | CCCCc1nc(C)n(-c2ncccc2F)c(=O)c1Cc1ccc(-c2ccccc2-c2nnn[nH]2)cc1 [Example 4, 5-{[2′-(1H-tetrazol-5-yl)biphenyl-4-yl]methyl}-6-butyl-3-(3-fluoropyridin-2-yl)-2-methylpyrimidin-4(3H)-one] | –
7.31 | 5.91 | 28.9% | CCCCc1nc(C)n(-c2ncc(OC3CCCCC3)cn2)c(=O)c1Cc1ccc(-c2ccccc2-c2nnn[nH]2)cc1 [Example 28, 5-{[2′-(1H-tetrazol-5-yl)biphenyl-4-yl]methyl}-6-butyl-3-[5-(cyclohexyloxy)pyrimidin-2-yl]-2-methylpyrimidin-4 (3H)-one] | –
7.62 | 5.41 | – | CCCCc1nc(C)n(-c2ncc(OCCSC)cn2)c(=O)c1Cc1ccc(-c2ccccc2-c2nnn[nH]2)cc1 [Example 26, 5-{[2′-(1H-tetrazol-5-yl)biphenyl-4-yl]methyl}-6-butyl-2-methyl-3-{5-[2-(methylthio)ethoxy]pyrimidin-2-yl}pyrimidin-4 (3H)-one] | –
7.89 | 5.91 | – | CCCCc1nc(C)n(-c2cc(OC)nc(OC)n2)c(=O)c1Cc1ccc(-c2ccccc2-c2nnn[nH]2)cc1 [Example 59] | –
